From patent US10689354B2, “Aminoazole derivative” (Teijin Pharma Limited, priority 2015, dated 2020)

Tests used:
human androgen receptor = target: T1, human androgen receptor (Homo sapiens, UniProt P10275); experiment: Reporter assay of an androgen receptor responsive sequence (luciferase, transiently transfected HEK293 cells); format: cell-based; details: 24 hours incubation, relative to activity of 100 nM DHT, read-out: AR transcriptive activity (pEC50) (converted)
T1 construct: expressed in transfected cells; host or cells: HEK293
T1 sequence (P10275 1-920): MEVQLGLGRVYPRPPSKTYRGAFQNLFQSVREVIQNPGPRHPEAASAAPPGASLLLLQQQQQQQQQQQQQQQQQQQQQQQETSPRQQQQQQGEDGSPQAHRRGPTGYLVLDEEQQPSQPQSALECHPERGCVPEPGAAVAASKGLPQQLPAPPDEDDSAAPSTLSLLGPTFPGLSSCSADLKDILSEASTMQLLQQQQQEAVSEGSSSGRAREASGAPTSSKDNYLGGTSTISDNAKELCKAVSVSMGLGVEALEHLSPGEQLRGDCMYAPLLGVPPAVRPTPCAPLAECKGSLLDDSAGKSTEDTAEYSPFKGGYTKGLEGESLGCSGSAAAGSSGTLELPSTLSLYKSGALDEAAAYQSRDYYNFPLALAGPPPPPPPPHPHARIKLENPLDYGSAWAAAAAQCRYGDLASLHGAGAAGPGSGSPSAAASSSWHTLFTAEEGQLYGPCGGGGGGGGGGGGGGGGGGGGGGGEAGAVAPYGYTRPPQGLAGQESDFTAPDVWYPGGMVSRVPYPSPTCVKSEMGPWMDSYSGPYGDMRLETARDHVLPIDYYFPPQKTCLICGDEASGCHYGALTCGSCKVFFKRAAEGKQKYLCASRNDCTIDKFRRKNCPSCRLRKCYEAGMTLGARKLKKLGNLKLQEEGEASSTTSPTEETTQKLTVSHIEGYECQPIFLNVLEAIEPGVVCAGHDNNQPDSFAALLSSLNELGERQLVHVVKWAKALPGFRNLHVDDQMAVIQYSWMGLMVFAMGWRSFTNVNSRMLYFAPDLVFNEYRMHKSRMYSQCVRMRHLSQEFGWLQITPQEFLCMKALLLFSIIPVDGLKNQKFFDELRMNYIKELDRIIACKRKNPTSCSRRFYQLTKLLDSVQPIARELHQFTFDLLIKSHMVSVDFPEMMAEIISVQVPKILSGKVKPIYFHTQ
Procedure, shortened: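 Agonism scored as pEC50, fitted by 4-parameter curve against the response to 100 nM DHT, from dual-luciferase readout after 24 h compound treatment. Cells were HEK293 co-transfected (3 h) with human AR expression vector, androgen-responsive firefly reporter and Renilla control, in charcoal-stripped serum.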

[1] = target: T2, androgen receptor (AR-LBD) (Rattus norvegicus, UniProt P15207); experiment: Evaluation of androgen receptor affinity (PolarScreen Androgen Receptor Competitor Assay Kit, Red; fluorescence polarization); details: 22° C. for 5 hours, relative to binding rate of 1 μM DHT, read-out: AR affinity (pEC50) (converted)
T2 construct: 5 μL of 2×AR-LBD/Fluoromone AL Red Complex contained in the kit; purchased Invitrogen
T2 sequence (P15207 651-882 limits assumed): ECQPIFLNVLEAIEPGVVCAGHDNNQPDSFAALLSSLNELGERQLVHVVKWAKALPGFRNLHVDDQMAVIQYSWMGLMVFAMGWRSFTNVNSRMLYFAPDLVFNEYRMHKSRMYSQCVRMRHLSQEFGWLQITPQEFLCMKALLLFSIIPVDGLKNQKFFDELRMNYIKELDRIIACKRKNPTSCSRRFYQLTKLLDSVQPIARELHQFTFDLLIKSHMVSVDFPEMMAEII
Procedure, shortened: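 FP competition: compound + AR-LBD/Fluoromone AL Red tracer complex, 22° C, 5 h. Reference 1 μM DHT binding rate; pEC50 by 4-parameter fit.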

Cc1sc(N(Cc2ccco2)c2ccc(C#N)cc2)nc1C(=O)NS(C)(=O)=O [Compound 87, 2-[4-cyano-N-(2-furylmethyl)anilino]-5-methyl-N-methylsulfonyl-thiazole-4-carboxamide]
EC50 (human androgen receptor): 1 µM | EC50 [1]: 0.158 µM

COCCCS(=O)(=O)NC(=O)c1nc(N(Cc2cnc(C(F)(F)F)c(OC)c2)c2ccc(C#N)cc2)sc1C [Compound 532, 2-[4-cyano-N-[[5-methoxy-6-(trifluoromethyl)-3-pyridyl]methyl]anilino]-N-(3-methoxypropylsulfonyl)-5-methyl-thiazole-4-carboxamide]
EC50 (human androgen receptor): 1.58 µM | EC50 [1]: 0.2 µM

Cc1sc(N(Cc2ccc(F)c3cccnc23)c2ccc(C#N)cc2)nc1C(=O)NS(C)(=O)=O [Example 175, 2-[4-cyano-N-[(5-fluoro-8-quinolyl)methyl]anilino]-5-methyl-N-methylsulfonyl-thiazole-4-carboxamide]
EC50 (human androgen receptor): 0.126 µM | EC50 [1]: 0.0794 µM

Cc1sc(N(Cc2cc(OC(F)F)ccc2F)c2ccc(C#N)cc2)nc1C(=O)NS(C)(=O)=O [Compound 520, 2-[4-cyano-N-[[5-(difluoromethoxy)-2-fluoro-phenyl]methyl]anilino]-5-methyl-N-methylsulfonyl-thiazole-4-carboxamide]
EC50 (human androgen receptor): 0.316 µM | EC50 [1]: 0.0251 µM

Cc1sc(N(Cc2ccc(Cl)cc2)Cc2csc3cc(C(F)(F)F)ccc23)nc1C(=O)NS(C)(=O)=O [Compound 677, 2-[(4-chlorophenyl)methyl-[[6-(trifluoromethyl)benzothiophen-3-yl]methyl]amino]-5-methyl-N-methylsulfonyl-thiazole-4-carboxamide]
EC50 (human androgen receptor): > 10 µM | EC50 [1]: > 2 µM

Cc1sc(N(CCC2CCCCC2)Cc2ccc(OC(F)(F)F)cc2)nc1C(=O)NS(=O)(=O)C(F)(F)F [Compound 724, 2-[2-cyclohexylethyl-[[4-(trifluoromethoxy)phenyl]methyl]amino]-5-methyl-N-(trifluoromethylsulfonyl)thiazole-4-carboxamide]
EC50 (human androgen receptor): > 10 µM | EC50 [1]: 0.501 µM

Cc1sc(N(Cc2ccccc2)c2ccc(C#N)cc2)nc1C(=O)NS(=O)(=O)C1CC1 [Compound 363, 2-(N-benzyl-4-cyano-anilino)-N-cyclopropylsulfonyl-5-methyl-thiazole-4-carboxamide]
EC50 (human androgen receptor): 1.26 µM | EC50 [1]: 0.0631 µM

Cc1sc(N(CCc2ccc(C#N)cc2)Cc2ccc(Cl)cc2)nc1C(=O)NS(=O)(=O)C(F)(F)F [Compound 715, 2-[(4-chlorophenyl)methyl-[2-(4-cyanophenyl)ethyl]amino]-5-methyl-N-(trifluoromethylsulfonyl)thiazole-4-carboxamide]
EC50 (human androgen receptor): 2.51 µM | EC50 [1]: 0.126 µM

Cc1sc(N(Cc2ccc(OC(F)(F)F)cc2)c2ccc(C#N)cc2)nc1C(=O)NS(=O)(=O)CCCCO [Example 201, 2-[4-cyano-N-[[4-(trifluoromethoxy)phenyl]methyl]anilino]-N-(4-hydroxybutylsulfonyl)-5-methyl-thiazole-4-carboxamide]
EC50 (human androgen receptor): 0.0398 µM | EC50 [1]: 0.0398 µM

Cc1oc(N(Cc2nc3ccccc3s2)c2ccc(C#N)cc2)nc1C(=O)NS(C)(=O)=O [Compound 630, 2-[N-(1,3-benzothiazol-2-ylmethyl)-4-cyano-anilino]-5-methyl-N-methylsulfonyl-oxazole-4-carboxamide]
EC50 (human androgen receptor): 2.51 µM | EC50 [1]: 0.158 µM

Cc1sc(N(Cc2ccnc(C(F)(F)F)c2)c2ccc(C#N)cc2)nc1C(=O)NS(C)(=O)=O [Compound 538, 2-[4-cyano-N-[[2-(trifluoromethyl)-4-pyridyl]methyl]anilino]-5-methyl-N-methylsulfonyl-thiazole-4-carboxamide]
EC50 (human androgen receptor): 3.98 µM | EC50 [1]: 0.398 µM

COCCCS(=O)(=O)NC(=O)c1nc(N(Cc2ccc(OC(F)F)cc2)c2ccc(C#N)cc2)sc1C [Example 165, 2-[4-cyano-N-[[4-(difluoromethoxy)phenyl]methyl]anilino]-N-(3-methoxypropylsulfonyl)-5-methyl-thiazole-4-carboxamide]
EC50 (human androgen receptor): 0.158 µM | EC50 [1]: 0.0501 µM
